Among the data in patent publication US12325697B2 (Nimbus Clio, Inc., priority 2021, dated 2025) are IC50 and EC50 values, retold here.

A word on the IC50: it is the concentration that inhibits the measured activity by half. The term EC50 denotes the concentration needed to bring the measured effect to its halfway point.

Where only a bound is given, the exact number is not on record here.

The target of test [1] is Recombinant human Cbl-b (aa 36-427) (Homo sapiens (Human), UniProt Q13191). The test is described as follows: Cbl-b Biochemical Assay (TR-FRET). The settings on record: read-out: TR-FRET hCbl-b IC50. The procedure, abridged: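 IC50 from 4-parameter fit of % inhibition (DMSO max, reference-inhibitor min), duplicate ten-point series. Compound preincubated with 6 nM Cbl-b, then Src-Zap70 (1-2.5 nM)/0.5 mM ATP reaction 60 min RT; EDTA quench with labelled UBE2D2-Ub and streptavidin-terbium, 60 min, HTRF at 520 nm.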
Sequence of Recombinant human Cbl-b (aa 36-427) (Q13191 36-427): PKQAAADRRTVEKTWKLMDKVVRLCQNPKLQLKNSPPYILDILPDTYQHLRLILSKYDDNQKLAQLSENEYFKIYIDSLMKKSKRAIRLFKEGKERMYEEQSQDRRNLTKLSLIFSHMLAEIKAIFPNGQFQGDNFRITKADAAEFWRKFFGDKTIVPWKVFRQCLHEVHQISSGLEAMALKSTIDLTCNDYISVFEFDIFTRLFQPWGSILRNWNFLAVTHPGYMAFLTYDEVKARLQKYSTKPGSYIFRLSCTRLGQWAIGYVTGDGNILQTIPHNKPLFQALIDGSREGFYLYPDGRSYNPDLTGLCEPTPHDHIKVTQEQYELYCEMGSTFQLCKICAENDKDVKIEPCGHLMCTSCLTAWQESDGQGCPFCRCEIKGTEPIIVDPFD
(In general: In TR-FRET formats the signal depends on donor and acceptor labels being close together.)

Test [2] deals with Jurkat (clone E6-1) cells, NFAT luciferase reporter. The test is described as follows: Jurkat Reporter Assay (NFAT Luciferase). Format: cell-based. The settings on record: Homo sapiens, anti-CD3 stimulation, 6 hr, read-out: Jurkat NFAT EC50. In general terms: In a reporter assay the amount or activity of a reporter protein is the signal.
In test [3] the test system is Phospho-Zap70 (Y-319) in Jurkat wild-type (clone E6-1) cells. The test is described as follows: Jurkat pZAP70 HTRF Assay. Format: cell-based. The settings on record: Homo sapiens, anti-CD3 5 μg/ml, 3 hr, read-out: ZAP70 Jurkat EC50.

Regarding `CCNc1cc(-c2ccc(C#N)cc2-c2nncn2C)cc(N2Cc3c(cc(C(O)CN(C)C)cc3C(F)(F)F)C2=O)n1` (stereo not drawn) [AFR-7, 4-(2-{6-[2-(Dimethylamino)-1-hydroxyethyl]-1-oxo-4-(trifluoromethyl)-3H-isoindol-2-yl}-6-(ethylamino)pyridin-4-yl)-3-(4-methyl-1,2,4-triazol-3-yl) benzonitrile], the IC50 in test [1] is at most 200 nM. For the same molecule, the EC50 in test [2] and in test [3] was below 200 nM in each case.
Consider `Cn1cnnc1-c1cc(F)ccc1-c1cc(C2CC2)nc(N2Cc3c(cc(COCC4(N)CCC4)cc3C(F)(F)F)C2=O)c1` [AGG-2, 6-{1[(1-Aminocyclobutyl)methoxy]methyl}-2-{6-cyclopropyl-4-[4-fluoro-2-(4-methyl-1,2,4-triazol-3-yl)phenyl]pyridin-2-yl}-4-(trifluoromethyl)-3H-isoindol-1-one], for which the IC50 in test [1] is at most 200 nM. For the same molecule, the EC50 in test [2] and in test [3] was below 200 nM each time.
`Cn1cnnc1-c1cc(F)ccc1-c1cccc(N2Cc3ccc(CNCC4(O)CCCC4)cc3C2=O)c1` [AHB-1, 2-(4′-Fluoro-2′-(4-methyl-4H-1,2,4-triazol-3-yl)-[1,1′-biphenyl]-3-yl)-6-((((1-hydroxycyclopentyl)methyl)amino)methyl) isoindolin-1-one]: in test [1], the IC50 was at most 200 nM. Besides, the EC50 in test [2] and in test [3] was below 200 nM throughout.
For the molecule `C[C@H]1CCCN(Cc2cc3c(c(C(F)(F)F)c2)CN(c2cccc(-c4ccc(C#N)cc4-c4nncn4C)c2)C3=O)C1` [ADQ-2, 2-(4-methyl-1,2,4-triazol-3-yl)-3′-(6-{[(3S)-3-methylpiperidin-1-yl]methyl}-1-oxo-4-(trifluoromethyl)-3H-isoindol-2-yl)-[1,1′-biphenyl]-4-carbonitrile], the IC50 in test [1] was at most 200 nM. Also, the EC50 in test [2] and in test [3] was below 200 nM in each case.
Consider `Cn1cnnc1-c1cc(F)ccc1-c1cc(C2CC2)nc(N2Cc3ccc(CNCC(C)(C)O)cc3C2=O)c1` [AHG-2, 2-{6-Cyclopropyl-4-[4-fluoro-2-(4-methyl-1,2,4-triazol-3-yl)phenyl]pyridin-2-yl}-6-{[(2-hydroxy-2-methylpropyl)amino]methyl}-3H-isoindol-1-one], for which the IC50 in test [1] was at most 200 nM. Also, the EC50 in test [2] and in test [3] was below 200 nM each time.
`CCNc1cc(-c2c(-c3nncn3C)cnn2C)cc(N2Cc3c(cc(CN[C@@H]4CCC[C@@H]4O)cc3C(F)(F)F)C2=O)n1` [ADF-2, 2-[6-(Ethylamino)-4-[2-methyl-4-(4-methyl-1,2,4-triazol-3-yl)pyrazol-3-yl]pyridin-2-yl]-6-({[(1R,2S)-2-hydroxycyclopentyl]amino}methyl)-4-(trifluoromethyl)-3H-isoindol-1-one]: the IC50 in test [1] was at most 200 nM. The EC50 in test [2] and in test [3] was below 200 nM each time.
Take `CCNc1cc(-c2ccc(F)cc2-c2nncn2C)cc(N2Cc3c(cc(COCC4(F)CCC4)cc3C(F)(F)F)C2=O)n1` [AGB-1, 2-[6-(Ethylamino)-4-[4-fluoro-2-(4-methyl-1,2,4-triazol-3-yl)phenyl]pyridin-2-yl]-6-{1[(1-fluorocyclobutyl)methoxy]methyl}-4-(trifluoromethyl)-3H-isoindol-1-one]: in test [1], the IC50 is at most 200 nM. Further, the EC50 is below 200 nM in test [2] and 1000 to 10000 nM in test [3].
For the molecule `Cn1cnnc1-c1cc(F)ccc1-c1cc(C2CC2)nc(N2Cc3c(cc(COCC4(O)CCC4)cc3C(F)(F)F)C2=O)c1` [AFL-2, 2-{6-Cyclopropyl-4-[4-fluoro-2-(4-methyl-1,2,4-triazol-3-yl)phenyl]pyridin-2-yl}-6-{[(1-hydroxycyclobutyl)methoxy]methyl}-4-(trifluoromethyl)-3H-isoindol-1-one], the IC50 in test [1] was at most 200 nM. The EC50 in test [2] and in test [3] was below 200 nM throughout.
`Cn1cnnc1-c1cnn(C)c1-c1cccc(N2Cc3c(cc(CN[C@@H]4CCC[C@@H]4O)cc3C(F)(F)F)C2=O)c1` [ADO-2, 6-({[(1R,2S)-2-Hydroxycyclopentyl]amino}methyl)-2-{3-[2-methyl-4-(4-methyl-1,2,4-triazol-3-yl)pyrazol-3-yl]phenyl}-4-(trifluoromethyl)-3H-isoindol-1-one]: in test [1], the IC50 was at most 200 nM. The EC50 in test [2] and in test [3] was below 200 nM each time.
With `CCNc1cc(-c2ccc(C#N)cc2-c2nncn2C)cc(N2Cc3c(cc(CN[C@@H]4CCC[C@@H]4O)cc3C(F)(F)F)C2=O)n1` [AEL-2, 4-[2-(Ethylamino)-6-[6-({[(1R,2S)-2-hydroxycyclopentyl]amino}methyl)-1-oxo-4-(trifluoromethyl)-3H-isoindol-2-yl]pyridin-4-yl]-3-(4-methyl-1,2,4-triazol-3-yl) benzonitrile], the IC50 in test [1] is at most 200 nM. For the same molecule, the EC50 in test [2] and in test [3] was below 200 nM throughout.
Consider `Cn1cnnc1-c1cc(F)ccc1-c1cc(C2CC2)nc(N2Cc3ccc(CN[C@@H]4CCC[C@@H]4O)cc3C2=O)c1` [AFO-2, 2-{6-Cyclopropyl-4-[4-fluoro-2-(4-methyl-1,2,4-triazol-3-yl)phenyl]pyridin-2-yl}-6-({[(1R,2S)-2-hydroxycyclopentyl]amino}methyl)-3H-isoindol-1-one], for which the 50% inhibitory concentration (IC50) in test [1] is at most 200 nM. Also, the EC50 in test [2] and in test [3] was below 200 nM in each case.
In the case of `Cn1cnnc1-c1cc(F)ccc1-c1cc(C2CC2)nc(N2Cc3ccc(CNCC4CCCC4)cc3C2=O)c1` [AHH-3, 6-{[(Cyclopentylmethyl)amino]methyl}-2-{6-cyclopropyl-4-[4-fluoro-2-(4-methyl-1,2,4-triazol-3-yl)phenyl]pyridin-2-yl}-3H-isoindol-1-one], the IC50 in test [1] is at most 200 nM. In addition, the EC50 in test [2] and in test [3] was below 200 nM each time.
`Cn1cnnc1-c1cc(Cl)ccc1-c1cccc(N2Cc3ccc(CNCC4(O)CCCC4)cc3C2=O)c1` [AGU-10, 2-[4′-Chloro-2′-(4-methyl-1,2,4-triazol-3-yl)-[1,1′-biphenyl]-3-yl]-6-({[(1-hydroxycyclopentyl)methyl]amino}methyl)-3H-isoindol-1-one]: in test [1], the 50% inhibitory concentration (IC50) was at most 200 nM. In addition, the EC50 in test [2] and in test [3] was below 200 nM in each case.
As for `C=C(C)c1cc(-c2ccc(F)cc2-c2nncn2C)cc(N2Cc3ccc(CNCC4(O)CCC4)cc3C2=O)n1` [AFW-3, 2-{4-[4-Fluoro-2-(4-methyl-1,2,4-triazol-3-yl)phenyl]-6-(prop-1-en-2-yl)pyridin-2-yl}-6-({[(1-hydroxycyclobutyl)methyl]amino}methyl)-3H-isoindol-1-one], in test [1], the 50% inhibitory concentration (IC50) is at most 200 nM. Also, the EC50 in test [2] and in test [3] was below 200 nM throughout.
On to `Cn1cnnc1-c1ccccc1-c1cc(C2CC2)nc(N2Cc3cc(F)c(CNCC4(O)CCC4)cc3C2=O)c1` [AEI-5, 2-{6-Cyclopropyl-4-[2-(4-methyl-1,2,4-triazol-3-yl)phenyl]pyridin-2-yl}-5-fluoro-6-({[(1-hydroxycyclobutyl)methyl]amino}methyl)-3H-isoindol-1-one], for which, in test [1], the IC50 was at most 200 nM. Besides, the EC50 in test [2] and in test [3] was below 200 nM in each case.
For the molecule `CCNc1cc(-c2ccc(F)cc2-c2nncn2C)cc(N2Cc3c(cc(COCC(C)(C)O)cc3C(F)(F)F)C2=O)n1` [AFG-1, 2-[6-(Ethylamino)-4-[4-fluoro-2-(4-methyl-1,2,4-triazol-3-yl)phenyl]pyridin-2-yl]-6-[(2-hydroxy-2-methylpropoxy)methyl]-4-(trifluoromethyl)-3H-isoindol-1-one], the IC50 in test [1] is at most 200 nM. Also, the EC50 in test [2] was below 200 nM; in test [3], 200 to 1000 nM.
For `CCOc1cc(-c2ccc(F)cc2-c2nncn2C)cc(N2Cc3ccc(CNCC4(O)CCC4)cc3C2=O)n1` [AGR-1, 2-{6-Ethoxy-4-[4-fluoro-2-(4-methyl-1,2,4-triazol-3-yl)phenyl]pyridin-2-yl}-6-({[(1-hydroxycyclobutyl)methyl]amino}methyl)-3H-isoindol-1-one], in that order: at most 200 nM, below 200 nM and below 200 nM.
For `CCNc1cc(-c2ccc(C#N)cc2-c2nncn2C)cc(N2Cc3c(cc(OC)cc3C(F)(F)F)C2=O)n1` [AEU-8, 4-[2-(Ethylamino)-6-[6-methoxy-1-oxo-4-(trifluoromethyl)-3H-isoindol-2-yl]pyridin-4-yl]-3-(4-methyl-1,2,4-triazol-3-yl)benzonitrile], the IC50 in test [1] was at most 200 nM. For the same molecule, the EC50 is below 200 nM in test [2] and 200 to 1000 nM in test [3].
For `Cn1cnnc1-c1cc(C#N)ccc1-c1cc(C2CC2)nc(N2Cc3c(cc(C4(O)CCC4)cc3C(F)(F)F)C2=O)c1` [AGM-5, 4-{2-Cyclopropyl-6-[6-(1-hydroxycyclobutyl)-1-oxo-4-(trifluoromethyl)-3H-isoindol-2-yl]pyridin-4-yl}-3-(4-methyl-1,2,4-triazol-3-yl)benzonitrile], in that order: at most 200 nM, below 200 nM and 200 to 1000 nM.
Regarding `Cn1cnnc1-c1cc(F)ccc1-c1cc(C2CC2)nc(N2Cc3ccc(COCC4(N)CCC4)cc3C2=O)c1` [AGI-3, 6-{1[(1-Aminocyclobutyl)methoxy]methyl}-2-{6-cyclopropyl-4-[4-fluoro-2-(4-methyl-1,2,4-triazol-3-yl)phenyl]pyridin-2-yl}-3H-isoindol-1-one], the IC50 in test [1] was at most 200 nM. Also, the EC50 in test [2] and in test [3] was below 200 nM in each case.
